Data on 16 compounds can be found in ChEMBL document CHEMBL2069241, “Isosteric replacements for benzothiazoles and optimisation to potent Cathepsin K inhibitors free from hERG channel inhibition” (Bioorg Med Chem Lett, 2012).

Data set [1] in a line: physchem. The settings on record: buffer, pH 7.4.
Data set [2] in a line: Volume of distribution at steady state in Han Wistar rat at 1 mg/kg, iv and 2 mg/kg, po. Format: ADME, organism-based. The settings on record: in vivo, read-out: Vdss.
Data set [3] in a line: Oral bioavailability in Han Wistar rat at 2 mg/kg. Format: ADME, organism-based. The settings on record: in vivo.
Data set [4] in a line: physchem. The settings on record: buffer, pH 7.4. This is another data set of the same source.
A short description of data set [5]: Oral bioavailability in beagle dog at 1 mg/kg. Format: ADME, organism-based, Canis lupus familiaris. Particulars: in vivo.
Data set [6] is described as follows: Volume of distribution at steady state in beagle dog at 1 mg/kg, iv and 1 mg/kg, po. Format: ADME, organism-based, Canis lupus familiaris. Particulars: in vivo, read-out: Vdss.

Converted amounts (≈) assume the structure as drawn. A value given as a limit tells only on which side of the number the result lay.

On to `N#CC1(NC(=O)[C@@H]2CCCC[C@H]2C(=O)N2CCN(c3nc(C(F)(F)F)c(Cl)s3)CC2)CC1`, for which the logD in data set [1] is 3.4.

In turn, `N#CC1(NC(=O)[C@@H]2CCCC[C@H]2C(=O)N2CCN(c3nc4c(s3)CCC4)CC2)CC1` gave a logD in data set [1] of more than 3.

For the compound `N#Cc1cnc(N2CCN(C(=O)[C@@H]3CCCC[C@H]3C(=O)NC3(C#N)CC3)CC2)s1`, the log distribution coefficient (logD) in data set [1] came out at 1.2.

`N#CC1(NC(=O)[C@@H]2CCCC[C@H]2C(=O)N2CCN(c3nc(C(F)(F)F)cs3)CC2)CC1` came in with a pH-dependent lipophilicity (logD) in data set [1] of 2.4.

On to `CS(=O)(=O)c1ccc2nc(N3CCN(C(=O)[C@@H]4CCCC[C@H]4C(=O)NC4(C#N)CC4)CC3)sc2c1`, for which the pH-dependent lipophilicity (logD) in data set [1] is 1.5. The Vd in data set [2] worked out at 0.54 L/kg. Besides, the bioavailability in data set [3] is 3.3%.

Take `CC1(C)COCc2sc(N3CCN(C(=O)[C@@H]4CCCC[C@H]4C(=O)NC4(C#N)CC4)CC3)nc21`: in data set [1], the logD was found to be 2.4. The concentration in solution in data set [4] (solubility) was 1700 µM (≈ 802 µg/mL).

As to `CC(C)(C#N)c1cnc(N2CCN(C(=O)[C@@H]3CCCC[C@H]3C(=O)NC3(C#N)CC3)CC2)s1`, the logD in data set [1] turned out to be 1.9. This compound showed a solubility in data set [4] of 2600 µM (≈ 1180 µg/mL).

The compound `N#CC1(NC(=O)[C@@H]2CCCC[C@H]2C(=O)N2CCN(c3nc4ncccc4s3)CC2)CC1` returned a logD in data set [1] of 1.4. The same compound yielded a solubility in data set [4] of more than 2000 µM.

The compound `N#CC1(NC(=O)[C@@H]2CCCC[C@H]2C(=O)N2CCN(c3nccs3)CC2)CC1` came in with a pH-dependent lipophilicity (logD) in data set [1] of 1.3. This compound had a solubility in data set [4] of 3100 µM (≈ 1200 µg/mL).

Consider `N#CC1(NC(=O)[C@@H]2CCCC[C@H]2C(=O)N2CCN(c3nc(-c4ccccc4)cs3)CC2)CC1`, for which the logD in data set [1] was found to be 3.5. In data set [4], this compound yielded a solubility of 96 µM (≈ 44.5 µg/mL).

On to `CC(C)(C)c1csc(N2CCN(C(=O)[C@@H]3CCCC[C@H]3C(=O)NC3(C#N)CC3)CC2)n1`, for which, in data set [1], the logD stood at 3.3. This compound also yielded a solubility in data set [4] of 280 µM (≈ 124 µg/mL).

Compound `Cc1sc(N2CCN(C(=O)[C@@H]3CCCC[C@H]3C(=O)NC3(C#N)CC3)CC2)nc1C(F)(F)F` registered a logD in data set [1] of 2.9.

`N#CC1(NC(=O)[C@@H]2CCCC[C@H]2C(=O)N2CCN(c3nc4ccncc4s3)CC2)CC1` had a logD in data set [1] of 1.6. Also, the solubility in data set [4] was more than 1600 µM.

`N#CC1(NC(=O)[C@@H]2CCCC[C@H]2C(=O)N2CCN(c3nc4ccccc4s3)CC2)CC1` came in with a logD in data set [1] of 2.6. For the same compound, the bioavailability amounted to 78% in data set [5] and 20% in data set [3]. Besides, the Vd in data set [2] and in data set [6] was 1.5 L/kg each time. The compound further displayed a solubility in data set [4] of 1000 µM (≈ 438 µg/mL).

In data set [1], `N#CC1(NC(=O)[C@@H]2CCCC[C@H]2C(=O)N2CCN(c3nc4c(s3)COCC4)CC2)CC1` yielded a logD of 1.4. Moreover, in data set [2], the Vd came to 1.3 L/kg. Moreover, the bioavailability in data set [3] was determined as 33%. Also, in data set [4], the solubility is more than 3600 µM.

In turn, `N#CC1(NC(=O)[C@@H]2CCCC[C@H]2C(=O)N2CCN(c3nc4cnccc4s3)CC2)CC1` returned a logD in data set [1] of 1.7. In data set [2], the Vd is 0.8 L/kg. In addition, in data set [3], the bioavailability amounted to 17%. In addition, in data set [4], the solubility was more than 1500 µM.

In general, logD refers to the decadic logarithm of the distribution of all forms, ionised or not, between an organic phase and buffer at a given pH. A lower logD goes with lower lipophilicity. The bioavailability is dose-corrected exposure relative to a reference, in per cent. Read a high bioavailability as much systemic uptake. One may read the solubility as how much of the substance goes into solution per volume. Higher therefore signals a readily soluble substance.
